Values quoted from earlier work, collected in paper PMC7220402 (Medicine, 2020).

Variation in dose-normalized MPA exposure: 10 fold
Compound: COc1c(C)c2c(c(O)c1C/C=C(\C)CCC(=O)O)C(=O)OC2 [MPA, mycophenolic acid]
